Data: a melting point compilation (Tetko et al.; mined from patent text by program, amines drawn as free bases though some values may be those of a salt)

SMILES	melting point
CC(C)[C@H](NC(=O)OCc1ccccn1)C(=O)N[C@@H](Cc1ccccc1)[C@@H](O)[C@H](O)[C@H](Cc1ccccc1)NC(=O)[C@@H](NC(=O)OCc1ccccn1)C(C)C	220 to 223 °C
O=c1nc(NC(=S)Nc2ccccc2)c(F)cn1S(=O)(=O)c1ccccc1	205 to 208 °C
O=S1(=O)N=C2CCCN2c2ccc(Oc3cccc(-c4ccco4)c3)cc21	186 to 189 °C
CCC(CC)C1CC(=O)C(C(=O)NS(=O)(=O)c2ccc(Cl)cc2)C(=O)C1 (stereo not drawn)	121 to 122 °C
Cc1ccc(-c2nc(NC(=O)c3nnn[nH]3)cs2)cc1	228 to 230 °C
Clc1cccc2c(CN3CCN(c4cc5ccccc5cn4)CC3)n[nH]c12	208 to 209 °C
O=[N+]([O-])c1cc2nc(O)c(O)nc2c2nonc12	> 300 °C
CCc1nn(CCO)c(CC)c1Cc1cc(C#N)cc(C#N)c1	115 to 117 °C
CC(=O)Nc1cc2c(cc1Oc1ccc(F)cc1F)CCC2=O	210 °C
NC(=O)CCC1CN(c2ccc3c(c2)OCC2CN(C(=O)CO)CCN32)C(=O)O1 (stereo not drawn)	115 to 118 °C
CCOC(=O)C1CC(O)c2cc3c(cc2C1c1cc(OC)c(OC)c(OC)c1)OCO3 (stereo not drawn)	151 to 152 °C
O=C(O)CCCc1cc2nc(Cl)ccc2n1S(=O)(=O)c1ccc(-c2cnco2)cc1	169 to 176 °C
Cc1cc(OC/C=C(\c2ccc(C#CCN3CCOCC3)cc2)c2ccc(S(C)=O)cc2)ccc1OCC(=O)O (stereo not drawn)	137 to 142 °C
CCc1nc(-c2ccc(OCCCn3cnc4ccccc43)cc2)no1	100 to 101 °C
COC(=O)c1cc2c(OC)ccc(OC)c2[nH]1	145 to 146 °C
CC(C)(C)NS(=O)(=O)c1ccccc1-c1ccc(NC(=O)C(=O)O)cc1	159 °C
CC(=O)Nc1ccc(C(=O)Nc2ccccc2NC(=O)CN)cc1	215 to 218 °C
O=C(O)c1cccc2[nH]cc(Cc3ccc(OCc4ccc5ccccc5n4)cc3)c12	209 to 211 °C
O=S(=O)(CC(O)(CBr)c1cccc(Br)c1)c1ccccc1 (stereo not drawn)	132 °C
CNC(=O)CN1CCc2cc(Nc3ncc(Cl)c(Nc4ccc(N5CCOCC5)cc4OC)n3)c(OC)cc2CC1	113 to 130 °C
CC(O)c1ccc(O)c(Cl)n1 (stereo not drawn)	89 to 92 °C
CC(=O)c1cccc(NC(=O)NC2N=C(c3ccccc3F)c3cccc(C)c3N(CC(=O)N3CC4CCC(CC4)C3)C2=O)c1 (stereo not drawn)	> 250 °C
CCOC(=O)c1nccc(N)n1	101 to 104 °C
O=C(OCc1ccccc1)c1ccc2cc(-c3ccc(C(O)CO)c(C45CC6CC(CC(C6)C4)C5)c3)ccc2c1 (stereo not drawn)	193 °C

SMILES	melting point
COc1ccc(C(O)(c2ccc3nc(Cl)nc(-c4cccc(Cl)c4)c3c2)c2cncn2C)cc1 (stereo not drawn)	144 °C
C[C@H]1Oc2ccc(Br)cc2C(=O)N2CCCC[C@@H]12 (racemic)	105 to 106 °C
Cn1c(N)c(CN2CCN(c3cccc4c3OCCO4)CC2)c(=O)n1-c1ccccc1	222 to 224 °C
COc1cccc2c1C13CCN(CC4CC4)C(C2)C1(O)CCC(=O)C3 (stereo not drawn)	133 to 135 °C
CN(C=C(C#N)C#N)c1ccc(O)cc1	187 to 189 °C
O=C(O)C1CCCC(NC(=O)C(CS)Cc2ccccc2)C1 (stereo not drawn)	174 to 177 °C
O=S(=O)(CCN1CCOCC1)Nc1cc(C(c2cc(F)ccc2F)S(=O)(=O)c2ccc(Cl)cc2)c(Cl)cn1 (stereo not drawn)	219 to 221 °C
Cc1nc2c(N)nc3ccccc3c2n1CCCNC(=O)C1CCCC1	208 to 209 °C
COC(=O)CCc1nc(CCc2ccc(C(=O)OC)cc2)ccc1O	137 to 139 °C
Cc1nc(CCc2nc3ccc(F)cc3c(=O)n2-c2cccnc2C)cs1	151 to 153 °C
COc1cccc2cc(C(=O)c3ccc(Cl)c(S(N)(=O)=O)c3)oc12	167 to 171 °C
Cc1oc(C2=NOC(c3cc(Cl)cc(Cl)c3)(C(F)(F)F)C2)cc1C(=O)NCC(=O)NCC(F)(F)F (stereo not drawn)	172 to 174 °C
CCCCCC1=C(c2ccc(F)cc2)C(=NO)CC1	101 to 102 °C
C#CC1(O)CCc2c(O)c3c(c(O)c2C1)C(=O)c1ccccc1C3=O (stereo not drawn)	230 °C
COc1cc(Nc2nccc(-c3sc(N)nc3C)n2)cc(OC)c1	269 to 271 °C
COc1cc(Nc2nccc(Oc3ccccc3)n2)cc(OC)c1OC	149 °C
N#CC(=C1CCCN1)c1ccc(-c2ccccc2)cc1	168 to 170 °C
Cc1nc2ccccc2n1-c1ccc(I)cc1	136 to 137 °C
Cc1ccc(S(=O)(=O)N2CCC(c3ccccc3)CC2)cc1	153 to 154 °C
COC(=O)c1ccc(Cc2cn(C)c3ccc(CC(C)C(=O)O)cc23)c(OC)c1 (stereo not drawn)	149 to 151 °C
O=C1CCN(C(=O)c2ccc(Cl)cc2Cl)c2c(Cl)cccc21	157 to 159 °C
O=C(CNC(=O)c1ccc(F)cc1)c1ccoc1	142 to 143 °C
CCc1nccn1-c1ccc(NC(=O)c2ccc(Cl)cc2)cc1	265 to 267 °C
CC(C)(C)N(O)CP(=O)(OCc1ccccc1)OCc1ccccc1	106 to 107 °C
